Measured values reported in patent US9273058B2 (BRISTOL-MYERS SQUIBB COMPANY, priority 2013, dated 2016).
Read-outs that look alike come from different tables or passages of the source.

What was measured:
[1] = target: CK1ε (Homo sapiens, UniProt P49674); test: CK1ε kinase assay (Caliper LabChip electrophoretic separation of fluoresceinated peptide substrate and product); assay type: biochemical; settings: 200 pM CK1ε, 50 μM ATP, 1.5 μM peptide, 22 hours at room temperature
Summary of the method: (§1)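 Kinase reactions ran 22 h at room temperature, were stopped with EDTA, and phosphorylated product was separated electrophoretically from unphosphorylated fluoresceinated peptide. Compounds were tested at eleven concentrations from 10 mM DMSO stocks. IC50 by non-linear regression.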

[2] = target: CK1δ (Homo sapiens, UniProt P48730); test: CK1δ kinase assay (Caliper LabChip electrophoretic separation of fluoresceinated peptide substrate and product); assay type: biochemical; settings: 200 pM CK1δ, 50 μM ATP, 1.5 μM peptide, 22 hours at room temperature
Summary of the method: as §1

CK1δ, sequence (P48730 whole entry): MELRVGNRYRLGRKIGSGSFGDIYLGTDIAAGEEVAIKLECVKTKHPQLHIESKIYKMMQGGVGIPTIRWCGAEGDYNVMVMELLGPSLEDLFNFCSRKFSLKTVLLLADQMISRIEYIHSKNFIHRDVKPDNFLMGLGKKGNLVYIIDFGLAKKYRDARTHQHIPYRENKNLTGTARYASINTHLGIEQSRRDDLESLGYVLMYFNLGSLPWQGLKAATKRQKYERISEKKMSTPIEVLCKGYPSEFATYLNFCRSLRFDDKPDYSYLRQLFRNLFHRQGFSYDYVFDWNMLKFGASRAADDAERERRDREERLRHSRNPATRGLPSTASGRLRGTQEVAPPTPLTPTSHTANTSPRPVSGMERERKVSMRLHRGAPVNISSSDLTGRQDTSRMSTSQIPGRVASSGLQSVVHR
CK1ε, sequence (P49674 whole entry): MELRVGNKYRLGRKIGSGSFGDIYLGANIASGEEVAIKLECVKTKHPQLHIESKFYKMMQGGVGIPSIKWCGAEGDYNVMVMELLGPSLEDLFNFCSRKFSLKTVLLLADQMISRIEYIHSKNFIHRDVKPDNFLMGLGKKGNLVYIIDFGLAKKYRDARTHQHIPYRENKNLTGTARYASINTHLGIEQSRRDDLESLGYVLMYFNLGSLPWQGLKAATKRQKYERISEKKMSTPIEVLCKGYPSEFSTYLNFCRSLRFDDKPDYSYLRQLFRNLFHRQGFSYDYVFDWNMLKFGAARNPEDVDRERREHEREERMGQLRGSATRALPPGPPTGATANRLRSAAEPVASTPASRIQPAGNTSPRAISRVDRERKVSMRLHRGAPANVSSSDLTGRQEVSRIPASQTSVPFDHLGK

Row | Structure (SMILES) | IC50 ([1]; read-out: CK1ε IC50 range) [nM] | IC50 ([2]; read-out: CK1δ IC50 range) [nM] | IC50 ([1]; read-out: CK1ε) [nM] | IC50 ([2]; read-out: CK1δ) [nM]
1 | NC(=O)c1c(-c2cccc(F)c2)nn2c1CN(C(=O)NC13CCC(C(F)F)(CC1)CC3)CC2 [Compound A94, N^5-(4-(Difluoromethyl)bicyclo[2.2.2]octan-1-yl)-2-(3-fluorophenyl)-6,7-dihydropyrazolo[1,5-a]pyrazine-3,5(4H)-dicarboxamide] | 0.01 to 10 | 0.01 to 10 |  | 
2 | CC(C)(NC(=O)N1CCn2nc(-c3cccc(F)c3)c(C(N)=O)c2C1)C(F)(F)F [Compound 13, 2-(3-Fluorophenyl)-N^5-(1,1,1-trifluoro-2-methylpropan-2-yl)-6,7-dihydropyrazolo[1,5-a]pyrazine-3,5(4H)-dicarboxamide] | 10 to 100 | 0.01 to 10 |  | 
3 | NC(=O)c1c(-c2cccc(F)c2)nn2c1CN(C(=O)NC(CF)(CF)CF)CC2 [Compound A95, N^5-(1,3-Difluoro-2-(fluoromethyl)propan-2-yl)-2-(3-fluorophenyl)-6,7-dihydropyrazolo[1,5-a]pyrazine-3,5(4H)-dicarboxamide] | 10 to 100 | 0.01 to 10 |  | 
4 | CC(C)(C)NC(=O)N1CCn2nc(-c3cccc(F)c3)c(C(N)=O)c2C1 [Compound 4, N^5-(tert-Butyl)-2-(3-fluorophenyl)-6,7-dihydropyrazolo[1,5-a]pyrazine-3,5(4H)-dicarboxamide] | 10 to 100 | 10 to 100 | 38.1 | 10.9
5 | COC12CCC(NC(=O)N3CCn4nc(-c5cccc(Cl)c5)c(C(N)=O)c4C3)(CC1)C2 [Compound A82, 2-(3-Chlorophenyl)-N^5-(4-methoxybicyclo[2.2.1]heptan-1-yl)-6,7-dihydropyrazolo[1,5-a]pyrazine-3,5(4H)-dicarboxamide] | 0.01 to 10 | 0.01 to 10 |  | 
6 | CC(C)(C)NC(=O)N1CCn2nc(-c3ccccc3F)c(C(N)=O)c2C1 [Compound 107, N^5-(tert-Butyl)-2-(2-fluorophenyl)-6,7-dihydropyrazolo[1,5-a] pyrazine-3,5(4H)-dicarboxamide] | 100 to 2000 | 10 to 100 | 400 | 105
7 | CC(C)(C)NC(=O)N1Cc2c(C(N)=O)c(-c3ccc(F)c(Cl)c3)nn2C(CCO)C1 (single isomer, unassigned) [Compound A96, N^5-(tert-Butyl)-2-(3-chloro-4-fluorophenyl)-7-(2-hydroxyethyl)-6,7-dihydropyrazolo[1,5-a]pyrazine-3,5(4H)-dicarboxamide] | 0.01 to 10 | 0.01 to 10 |  | 
8 | CC(C)(C)NC(=O)N1CCn2nc(-c3cccc(S(N)(=O)=O)c3)c(C(N)=O)c2C1 [Compound 136, N^5-(tert-Butyl)-2-(3-sulfamoylphenyl)-6,7-dihydropyrazolo[1,5-a] pyrazine-3,5(4H)-dicarboxamide] | 100 to 2000 | 100 to 2000 |  | 
9 | NC(=O)c1c(-c2ccc(F)c(Cl)c2)nn2c1CN(C(=O)NC13CCC(c4ccc(F)cc4)(CC1)CC3)CC2 [Compound A52, 2-(3-Chloro-4-fluorophenyl)-N^5-(4-(4-fluorophenyl)bicyclo[2.2.2]octan-1-yl)-6,7-dihydropyrazolo[1,5-a]pyrazine-3,5(4H)-dicarboxamide] | 0.01 to 10 | 0.01 to 10 |  | 
10 | NC(=O)c1c(-c2cccc(F)c2)nn2c1CN(C(=O)NC1(C(F)(F)F)CC1)CC2 [Compound 20, 2-(3-Fluorophenyl)-N^5-(1-(trifluoromethyl)cyclopropyl)-6,7-dihydropyrazolo[1,5-a]pyrazine-3,5(4H)-dicarboxamide] | 10 to 100 | 10 to 100 |  | 

Next, values leading:

Row | IC50 ([1]; read-out: CK1ε IC50 range) [nM] | IC50 ([2]; read-out: CK1δ IC50 range) [nM] | IC50 ([1]; read-out: CK1ε) [nM] | IC50 ([2]; read-out: CK1δ) [nM] | Structure (SMILES)
11 | 0.01 to 10 | 0.01 to 10 |  |  | CC1(NC(=O)N2CCn3nc(-c4ccc(Cl)c(Cl)c4)c(C(N)=O)c3C2)CC2(CC2)C1 [Compound 319, 2-(3,4-Dichlorophenyl)-N^5-(5-methylspiro[2.3]hexan-5-yl)-6,7-dihydropyrazolo[1,5-a]pyrazine-3,5(4H)-dicarboxamide]
12 | 0.01 to 10 | 0.01 to 10 |  |  | CC12CC3CC(C)(C1)CC(NC(=O)N1CCn4nc(-c5ccc(Cl)c(Cl)c5)c(C(N)=O)c4C1)(C3)C2 [Compound A92, 2-(3,4-Dichlorophenyl)-N^5-((1r,3R,5S,7r)-3,5-dimethyladamantan-1-yl)-6,7-dihydropyrazolo[1,5-a]pyrazine-3,5(4H)-dicarboxamide]
13 | 0.01 to 10 | 0.01 to 10 |  |  | CS(=O)(=O)[C@H]1C[C@@H](NC(=O)N2CCn3nc(-c4ccc(F)c(Cl)c4)c(C(N)=O)c3C2)C1 [Compound 272, 2-(3-Chloro-4-fluorophenyl)-N^5-((1s,3s)-3-(methylsulfonyl)cyclobutyl)-6,7-dihydropyrazolo[1,5-a]pyrazine-3,5(4H)-dicarboxamide]
14 | 0.01 to 10 | 0.01 to 10 |  |  | N#CC12CCC(NC(=O)N3CCn4nc(-c5ccc(F)c(Cl)c5)c(C(N)=O)c4C3)(CC1)C2 [Compound A140, 2-(3-Chloro-4-fluorophenyl)-N^5-(4-cyanobicyclo[2.2.1]heptan-1-yl)-6,7-dihydropyrazolo[1,5-a]pyrazine-3,5(4H)-dicarboxamide]
15 | 0.01 to 10 | 0.01 to 10 |  |  | CC1(NC(=O)N2CCn3nc(-c4cccc(Cl)c4)c(C(N)=O)c3C2)CC(F)(F)C1 [Compound 299, 2-(3-Chlorophenyl)-N^5-(3,3-difluoro-1-methylcyclobutyl)-6,7-dihydropyrazolo[1,5-a] pyrazine-3,5(4H)-dicarboxamide]
16 | 0.01 to 10 | 0.01 to 10 |  |  | NC(=O)c1c(-c2ccc(F)c(Cl)c2)nn2c1CN(C(=O)NC13CCC(CF)(CC1)C3)CC2 [Compound A138, 2-(3-Chloro-4-fluorophenyl)-N^5-(4-(fluoromethyl)bicyclo[2.2.1]heptan-1-yl)-6,7-dihydropyrazolo[1,5-a]pyrazine-3,5(4H)-dicarboxamide]
17 | 0.01 to 10 | 0.01 to 10 |  |  | CC1(NC(=O)N2CCn3nc(-c4cccc(Cl)c4)c(C(N)=O)c3C2)CC2(C1)CC2(F)F (single isomer, unassigned) [Compound 331, 2-(3-Chlorophenyl)-N^5-(1,1-difluoro-5-methylspiro[2.3]hexan-5-yl)-6,7-dihydropyrazolo[1,5-a]pyrazine-3,5(4H)-dicarboxamide]
18 | 0.01 to 10 | 0.01 to 10 |  |  | N#CCC1(NC(=O)N2CCn3nc(-c4ccc(Cl)c(Cl)c4)c(C(N)=O)c3C2)CCC1 [Compound 222, N^5-(1-(Cyanomethyl)cyclobutyl)-2-(3,4-dichlorophenyl)-6,7-dihydropyrazolo[1,5-a] pyrazine-3,5(4H)-dicarboxamide]
19 | 0.01 to 10 | 0.01 to 10 |  |  | NC(=O)c1c(-c2ccc(Cl)c(Cl)c2)nn2c1CN(C(=O)NC1CC(C(F)F)C1)CC2 (stereo not shown) [Compound 255, 2-(3,4-Dichlorophenyl)-N^5-(3-(difluoromethyl)cyclobutyl)-6,7-dihydropyrazolo[1,5-a]pyrazine-3,5(4H)-dicarboxamide]
20 | 0.01 to 10 | 0.01 to 10 |  |  | CC1(NC(=O)N2CCn3nc(-c4cc(Cl)cc(Cl)c4)c(C(N)=O)c3C2)CC(F)(F)C1 [Compound 298, 2-(3,5-Dichlorophenyl)-N^5-(3,3-difluoro-1-methylcyclobutyl)-6,7-dihydropyrazolo[1,5-a] pyrazine-3,5(4H)-dicarboxamide]
21 | 0.01 to 10 | 0.01 to 10 |  |  | CC(C)(NC(=O)N1CCn2nc(-c3ccc(F)c(Cl)c3)c(C(N)=O)c2C1)C1CCC(F)(F)CC1 [Compound 232, 2-(3-Chloro-4-fluorophenyl)-N^5-(2-(4,4-difluorocyclohexyl)propan-2-yl)-6,7-dihydropyrazolo[1,5-a]pyrazine-3,5(4H)-dicarboxamide]
